The record followed here is patent US5270041A, “Sterols, their fatty acid esters and glucosides; processes for their preparation; spontaneously dispersible agents containing these compounds, and their use for treatment of tumors” (Marigen S.A., priority 1989, dated 1993).

Assay [1] deals with TSA: murine adenocarcinoma (spontaneous cancer of the breast). Put plainly: In-vitro plaque assay of MARIGENOL microemulsions, greatest cytotoxic dilution, TSA. Type of assay: cell-based. To be noted: cell line TSA; 5 h; microemulsion 0,1%. As to the method:
A biological assay system using microtiter plates and serial dilutions has been developed Batches of 10^4 tumour cells per ml were set up in culture medium RPMI 1640 and […] with 10% of fetal calf serum (GIBCO); the cells are spread at a density low enough to enable them to grow during the assay in so-called non-confluent monolayers. Samples are added after 6-24 hours, with 100 μl per row, to which 100 μl of medium are added in the first well. Half of this mixture is withdrawn, transferred into the next well and again treated with 100 μl of medium, etc.
In the plaque assay, the samples are incubated at 37° C. for 3-5 days under 31/2% of CO2. They are then stained and fixed using 0.1% crystal violet (Fluka, Buchs) in a solution of 70% of methanol, 1% of formaldehyde and 29% water. The samples are evaluated under the microscope, magnification 300×. The greatest cytotoxic dilution is determined. The samples can also be evaluated quantitatively by means of scanning and absorption measurement in a spectrophotometer.

Assay [2] has as its system TSA adenocarcinoma. Put plainly: In-vivo assay on mice, TSA tumour growth, MARIGENOL 0,1% microemulsions. The following applies: 0,1% microemulsion. Also noted: species or system mice (Balb-c); key: + swelling. The procedure: The in-vivo assays were carried out on female mice. Old Balb-c strain animals of 28-32 g body weight were used (Charles River, Milan). Used as comparison standards throughout was the spontaneous adenocarcinoma TSA, a murine tumour cell line which was provided regularly by Prof. Guido Forni, Istituto di Microbiologia, Universita degli Studi di Torino, Scuola di Medicina.
A series of groups of 5 test animals each were fed with ordinary test feed (NAFAG complete feed No. 850, from Nahr- und Futtermittel AG, Gossau).
14 days after the introduction (average latency period), the newly-formed tissue is palpitated; ditto after 21 and after 28 days, and in some cases 35, days. The mean of the length and width of the solid, distinct tumour mass under the skin is determined (postmortem recheck).
To test the activity of the preparations in live organisms, the remaining test animals receive a daily dose of 0.25 ml of a test preparation by tube, in addition to the ordinary test feed. After an adaptation period of 5-7 days, the tumour is introduced, likewise inguinally, with 80-100'000 TSA units, as for the controls. It takes in every single case, in the group and on repetition, thus permitting the statistical groups to be kept to a relatively low number.
The experimental set-up is the same as in the case of gavage. Instead of using a tube, the preparations to be tested are administered inguinally by injection (right flank, subcutaneously), at a rate of 0.25 ml 3 times per week.

With `CCCCCCCCCCCCCCCC(=O)O[C@H]1CC[C@@]2(C)C(=CC[C@H]3[C@@H]4CC[C@H]([C@H](C)/C=C/[C@@H](CC)C(C)C)[C@@]4(C)CC[C@@H]32)C1` [C 16:0 STIGMASTEROL, STIGMASTEROL-PALMITATE], the “Active in dilution to 1:” value in assay [1] is on record as 80 1:.

Regarding “stigmasta-5,22-dien-3-ol-doiecenoate [Stigmasterol-dodecenoate]”, the results for the “Tumor mass Σ1/2 L + B” value in assay [2] (TSA after 14 days), in assay [2] (TSA after 21 days) and in assay [2] (TSA after 28 days) were 0 mm, 0 mm and 2 mm, respectively.

As for “β-SITOSTEROLUNDECENOATE [C 11:1-SITOSTEROL]”, the “Active in dilution to 1:” value in assay [1] is given as 40 1:.

`CCCCC/C=C\C/C=C\CCCCCCCC(=O)O[C@H]1CC[C@@]2(C)C(=CC[C@H]3[C@@H]4CC[C@H]([C@H](C)CC[C@@H](CC)C(C)C)[C@@]4(C)CC[C@@H]32)C1` [β-Sitosterol-linoleate, stigmast-5-en-3-ol-9,12-octadecadienoate]: the results for the “Tumor mass Σ1/2 L + B” value in assay [2] (TSA after 14 days), in assay [2] (TSA after 21 days) and in assay [2] (TSA after 28 days) were 0 mm, “+” and 1 mm, respectively.

Consider `CC/C=C\C/C=C\C/C=C\CCCCCCCC(=O)O[C@H]1CC[C@@]2(C)C(=CC[C@H]3[C@@H]4CC[C@H]([C@H](C)CC[C@@H](CC)C(C)C)[C@@]4(C)CC[C@@H]32)C1` [C 18:3-SITOSTEROL, stigmast-5-en-3-ol-9,12,15-octadecatrienoate], for which the “Tumor mass Σ1/2 L + B” value in assay [2] (TSA after 14 days) is “+”; in assay [2] (TSA after 21 days), “+”; in assay [2] (TSA after 28 days), 1 mm.

For “stigmast-5-en 3-ol-dodecenoate [C 12:1-SITOSTEROL]”, the “Active in dilution to 1:” value in assay [1] is given as 640 1:. Also, the results for the “Tumor mass Σ1/2 L + B” value in assay [2] (TSA after 14 days), in assay [2] (TSA after 21 days) and in assay [2] (TSA after 28 days) were 1 mm, 0 mm and 2 mm, respectively.
